Columns and labels:
Experiment in all cases: pre-emergent herbicidal activity, soil incorporation
Type in all cases: in vivo
Details in all cases: Table III, 2 WAT, 11.2 kg/h
Barnyardgrass = test system: Barnyardgrass
Method in brief: (§1)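 Seeds or propagules pressed onto compacted top soil in pans; covering soil admixed with formulation of known active-ingredient amount, then filled and leveled. Pans sub-irrigated on wet sand bench ~two weeks under ordinary sunlight. Emerged plants counted versus untreated control; activity index from average percent control per species.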

Canada Thistle = test system: Canada Thistle
Method in brief: as §1

Cocklebur = test system: Cocklebur
Method in brief: as §1

Downy Brome = test system: Downy Brome
Method in brief: as §1

Johnsongrass = test system: Johnsongrass
Method in brief: as §1

Lambsquarters = test system: Lambsquarters
Method in brief: as §1

Morningglory = test system: Morningglory
Method in brief: as §1

Quackgrass = test system: Quackgrass
Method in brief: as §1

Smartweed = test system: Smartweed
Method in brief: as §1

Velvetleaf = test system: Velvetleaf
Method in brief: as §1

Yellow Nutsedge = test system: Yellow Nutsedge
Method in brief: as §1

Row | Structure (SMILES) | pre-emergent herbicidal activity index (Barnyardgrass) | pre-emergent herbicidal activity index (Canada Thistle) | pre-emergent herbicidal activity index (Cocklebur) | pre-emergent herbicidal activity index (Downy Brome) | pre-emergent herbicidal activity index (Johnsongrass) | pre-emergent herbicidal activity index (Lambsquarters) | pre-emergent herbicidal activity index (Morningglory) | pre-emergent herbicidal activity index (Quackgrass) | pre-emergent herbicidal activity index (Smartweed) | pre-emergent herbicidal activity index (Velvetleaf) | pre-emergent herbicidal activity index (Yellow Nutsedge)
1 | CC(C#N)OP(=O)(O)CNCC(=O)OCCCl (stereo not shown) [Example 7, glycine, N-[[(1-cyanoethoxy)hydroxyphosphinyl]methyl], 2-chloroethyl ester] | 0 (1-24% control) | 1 (25-49% control) | 0 (1-24% control) | 0 (1-24% control) | 1 (25-49% control) | 0 (1-24% control) | 0 (1-24% control) | 0 (1-24% control) | 0 (1-24% control) | 0 (1-24% control) | 0 (1-24% control)
2 | CC(C#N)OP(=O)(O)CNCC(=O)OCc1ccccc1 (stereo not shown) [Example 10, glycine, N-[[(1-cyanoethoxy)hydroxyphosphinyl]methyl]-,phenylmethyl ester] | 0 (1-24% control) | 3 (75-100% control) | 0 (1-24% control) | 0 (1-24% control) | 2 (50-74% control) | 0 (1-24% control) | 0 (1-24% control) | 0 (1-24% control) | 0 (1-24% control) | 0 (1-24% control) | 0 (1-24% control)
